The results in this text go back to patent US5498624A, “Selected pyrazolyl derivatives” (Monsanto Company, priority 1995, dated 1996).

Test [1] concerns Uncinula necator. Put plainly: Vine Powdery Mildew Foliar Assay (VPM Prot). It is filed as in vivo. The settings on record: vine seedlings. As for the experimental part: A) Pathogen/Inoculum--Vine powdery mildew, caused by Uncinula necator, is an obligate parasite and must be maintained on a living host. Seedling leaves (2-5 leaf stage) of Vitis vinifera var. Carignane, are inoculated by brushing them with the leaves of infected plants. Incubation environment is the same as that described for incubation (Sec. D).
B) Host Propagation- Approximately 60 gm of seed are removed from cold storage and soaked in water for 2-3 days with frequent (3 or more) water changes each day. They are then combined with 24 gm of vermiculite and 30 ml of distilled water and put into refrigeration for 4-5 weeks. After this `vernalization` period, they are planted, 3 seeds/pot, into individual 2.25" pots filled with a commercial potting mix. The pots are watered well, and placed into a growth chamber set at 24° C., 85% RH and a 12 hour photoperiod at 200-300 me/m^2 /sec. The seedlings are thinned to one seedling/pot approximately 14 days after planting. After four to five additional days, seedlings are moved to the greenhouse. Plants are ready for assay 4-6 weeks after planting.
C) Test Compound Preparation
1) Experimental compounds--A final formulation of each of the compounds of the present invention in 20% acetone, 0.1% Tween®20 and 79.9% water is foliarly applied to the seedling vines at about 1.5 mls/pot (4 pots/treatment) using a DeVilbiss 152 sprayer at the rate of 100, 20 and 10 ppm. The seedlings have 2-4 true leaves at application. Treated pots are allowed to dry in a vented room and are then moved to the inoculation growth chamber (see Sec. D for settings).
2) Controls and standards--The commercial product RALLY=NOVA (myclobutanil)is used as an internal standard. Formulated myclobutanil 40 WP is applied at 100 and 20 ppm in water. Also included in the test is an inoculated control treatment (a water/acetone formulation blank).
D) Inoculation/Incubation--Treated vines are inoculated 24 hours after chemical application. Several diseased leaves are removed from inoculum production plants and are very gently brushed on the leaves of the test plants. This gentle contact and agitation allows spores to be dislodged from diseased leaves and fall onto test plant leaves.
The inoculation/incubation growth chamber is set at 24° C., 85% RH, and 12 hour photoperiod at 350 me/m^2 /sec.
E) Evaluation--The test is rated 7-9 days after inoculation or upon maximum disease expression. Percent area infected with disease is determined for each replicate. Treatment means are calculated and percent disease control is determined by the formula "(control mean--treatment mean) * 100 / control mean". The untreated/inoculated control treatment is used for this calculation. […]

The test system of test [2] is Venturia inaequalis. The test can be described thus: In Vitro Apple Scab Assay (ASC In Vitro). It is filed as cell-based. The settings on record: germ tube length. As for the experimental part:
A) Pathogen/Inoculum Production--A suspension of Venturia inaequalis conidia, adjusted to 150,000 spores/ml, is prepared using freshly harvested or frozen conidia. Apple seedlings, cv. McIntosh, are sprayed with this suspension and incubated in a high humidity chamber set at 20° C. with a 12 hour photoperiod for approximately four weeks. At maximum disease expression, a fine mist of deionized water is used to wash conidia from sporulating lesions and the resulting liquid/spore suspension is collected into glass vials and frozen at -80° C. for future use.
B) Compound Preparation--Water agar with 1.5% agar m/v is autoclaved to sterilization. Stock solutions of each compound of the present invention are made by solubilizing them in an appropriate solvent at a convenient concentration. Serial dilutions in solvent are made from this stock to execute the various test rates. When the molten agar is cool enough to pour, the compounds in solvent are dispensed into the agar such that the final concentration ratio of agar to solvent is 100:1. The agar is gently agitated and poured into petri plates, one plate per treatment. The standard used is 3-(difluoromethyl)-N-2,3-dihydro-1,1,3-trimethyl-1H-inden-4-yl)-1-Methyl-1H-Pyrazole-4-carboxamide as found in U.S. Pat. No. 5,093,347.
C) Test Execution--Twenty-four hours after pouring, the plates are ready for inoculation. The previously collected frozen spore suspension is thawed at room temperature and diluted to a concentration of 1×10^4 spores/ml with sterile water. Three drops of approximately 0.1 ml each of the suspension are placed into each plate in an equidistant configuration. The plates are then placed in a dark incubator set at 20° C.
D) Test Evaluation--Forty to forty-eight hours later, the lengths of the spore germ tubes are measured using an ocular lens scale on a binocular microscope. Ten germ tubes in a drop are measured and an average determined for that drop. This procedure is repeated for the other two drops. The values for the three drops are then averaged to give the mean for the treatment. Percent inhibition of germination is calculated using the following equation: % Inhibition=(avg. control length--avg. treatment length/avg. control length) X 100.

The subject of test [3] is Venturia inaequalis. Put plainly: Apple Scab Foliar Assay (ASC Prot). As to conditions: apple seedlings. It is filed as in vivo. How it is done:
A) Host Propagation--Apple, var. McIntosh, are collected form trees in the field and stored in a cold room at 4° C. After a minimum of 60 days storage, seed are collected and germinated in vermiculite in 3 inch pots in a growth chamber set at 27° C. day and 23° C. night temperature. When seedlings have emerged and 2-3 true leaves formed, the seedling are transplanted into 4 inch square pots containing a soil medium consisting of commercial potting mix. Seedlings are grown in this medium to the 8-10 leaf stage for use in tests. Before each test, the petiole of the smallest unfolded leaf is marked, with this leaf and the immediate five older leaves sprayed and inoculated in the test. The petiole of the oldest sprayed and inoculated leaf is also marked. The marking facilitates data collection for specific leaves and identification of the application site.
B) Test Compound Preparation--Compounds of the present invention are applied to the upper and lower leaf surfaces of the identified leaves at the rate of 100 and 20 ppm using a DiVilbiss Model 152 hand sprayer. Four plants per treatment are sprayed with 12 mls of spray solution which contains 40% acetone, 59.9% water, and 0.1% Triton B1956. Nova® (myclobutanil) is used as the commercial standard. It is suspended in water and applied at equivalent rates.
C) Pathogen/Inoculum Production--Inoculum from the apple scab pathogen, Venturia inaequalis, is obtained directly by washing conidia off of scab lesions from leaves on apple seedlings or by use of previously collected conidial suspension that has been frozen in a glass vial at -80° C. Conidial suspension concentration is adjusted to approximately 1×10^5 spores/ml by dilution with a solution of 1% v/v V8 juice/water. […]
D) Test Evaluation--Phytotoxicity data, and leaf burning, etc. is collected by treatment at the time of pathogen inoculation and at disease evaluation. Disease is evaluated on day 8-12 by estimating the amount of treated leaf tissue that is covered by apple scab lesions or symptoms. […] The percentage control is calculated as in the above examples.

With `C[C@@H]1CCC[C@H](c2ccccc2NC(=O)c2cn(C)nc2C(F)F)C1` (relative stereo) [Number 2, 1H-pyrazole-4-carboxamide, 3-(difluoromethyl)-1-methyl-N-[2-(-3-methylcyclohexyl)phenyl]-, cis-], the “VPM Prot percent disease control” value was determined as 76% in test [1] (20 ppm foliar protectant) and 91% in test [1] (100 ppm foliar protectant). Also, the “ASC In vitro (A.I.) Activity Index” value in test [2] (0.1 ppm in water agar) and in test [2] (1.0 ppm in water agar) was 3 each time. The “ASC Prot percentage control” value is on record as 58% in test [3] (20 ppm foliar protectant) and 99% in test [3] (100 ppm foliar protectant).

With `C[C@H]1CCC[C@H](c2ccccc2NC(=O)c2cn(C)nc2C(F)F)C1` (relative stereo) [Number 3, 1H-pyrazole-4-carboxamide, 3-(difluoromethyl)-1-methyl-N-[2-(3-methylcyclohexyl)phenyl]-, trans-], the “VPM Prot percent disease control” value in test [1] (10 ppm foliar protectant) is recorded as 34%; in test [1] (20 ppm foliar protectant) it was 51%. The “ASC In vitro (A.I.) Activity Index” value in test [2] (0.1 ppm in water agar) and in test [2] (1.0 ppm in water agar) was 3 each time. Besides, in test [3] (20 ppm foliar protectant), the “ASC Prot percentage control” value was determined as 90%.
